We go through two compounds from patent publication US20230322815A1, “NOVEL COMPOUNDS AND THERAPEUTIC USES THEREOF” (University of Huddersfield, priority 2020, published 2023).

Series [1] concerns panel of human cancer (HT-29, DLD-1, HCT116 p53^+/+ and p53^−/−, PSN1, MiaPaCa2, BxPC3, A549, H460, GBM1) and non-cancer cell lines (ARPE-19, MCF10A, NP1). The series can be described thus: Chemosensitivity of a panel of human cancer and non-cancer cell lines (MTT, 96 h). Type of series: cell-based. The settings on record: for IC50: HT-29, DLD-1, HCT116 (p53 wild type and null), BxPC3, A549 and H460 cell lines, 96 h, MTT. As for the experimental part: FIG. 7. Chemosensitivity response of a panel of human cancer and non-cancer cell lines to 96 h continuous exposure to self-assembling test compounds. a, The potency of compounds tested against cancer (HT-29, DLD-1, HCT116 p53^+/+ and […], PSN1, MiaPaCa2, BxPC3, A549, H460 and GBM1) and non-cancer cells (ARPE-19, MCF10A and NP1). Each value represents the mean IC50±standard deviation from a minimum of three independent experiments. b,c, The selectivity index (SI) for [L2Cu3]^6+ (b) and [L2Zn3]^6+ (c) for the indicated cancer cell lines; SI is defined as the mean IC50 against the particular non-cancer cell line model divided by the mean IC50 against the particular cancer cell line. […] As the SI value is calculated using the mean IC50 values, experimental error is not included in these figures. d,e, IC50 values for the clinically approved platinates (cisplatin, oxaliplatin and carboplatin) and [L2Mn3]^6+ and the corresponding SI results.
All cell lines used were maintained at low passage in antibiotic-free media and were obtained from ATCC (LGC Standards, Middlesex, UK) unless otherwise stated (Methods). HT29, DLD-1, HCT116 p53^+/+ and HCT116 p53^−/− are all colorectal adenocarcinoma cell lines derived from different individuals and harbor different combinations of oncogenic lesions (except for the HCT116 isogenic cancer cell clones that are genetically identical except for p53 status). PSN-1, BxPC-3 and MiaPaCa2 are pancreatic carcinoma cell lines and A549 and H460 are lung carcinoma cell lines. HT29, DLD-1, PSN-1, BxPC-3, A549 and H460 cell lines were cultured in RPMI-1640 growth media (Sigma) containing 2 mM L-glutamine, 1 mM sodium pyruvate and 10% fetal bovine serum (FBS). HCT116 (p53^+/+ and p53^−/−) and MiaPaCa2 cell lines were cultured in Dulbecco's Modified Eagle's Medium (Sigma), 2 mM L-glutamine and 10% FBS. The ARPE-19 retinal epithelial non-cancer cell line (Dunn et al., 1996) was cultured in DMEM/F12 media (Gibco), 2 mM L-glutamine, 1 mM sodium pyruvate and 10% FBS. The MCF10A non-cancerous human breast epithelial cell line was cultured in Minimal Essential Media Eagle (Sigma), 2 mM L-glutamine, 1 mM sodium pyruvate, 10% FBS and 1×non-essential amino acids (NEAA). NP1 and GBM1 cells were cultured on plasticware coated with poly-L-ornithine (5 μg/ml) and laminin (2.4 μg/ml) (Polson et al., 2018; Da Silva et al., 2019). […]
[L2M3]^6+ and all the other self-assembling complexes were freshly formed by adding DMSO to individual components mixing together by pipetting. […] Media and MTT were removed and formazan crystals were dissolved in 150 μl of DMSO and the absorbance of the resulting solution determined at 540 nm. […]

The subject of a further series is chick embryo. The series can be described thus: Embryonic toxicity, H460 in ovo study. Format: in vivo, chick (White Leghorn). The settings on record: for embryo tolerability: all doses tested, no statistically significant difference to solvent control; for % Alive / % Dead / Alive (embryos at E18) / Dead (embryos at E18): H460 study. Here is the method: 10^6 tumor cells (H460, HT29 or HCT116) were grafted onto the upper chorioallantoic membrane (CAM) of the developing chick embryo on embryonic day 9 (E9). Access to the upper CAM was through a small hole drilled through the eggshell of fertilized White Leghorn eggs (into the air sac) on E9 (15 eggs per experimental group).
100 μl of freshly prepared experimental compound, vehicle control or standard-of-care (SoC) drug at their working concentrations were pipetted onto the tumor graft at E11, E13, E15 and E17. On day E18, the upper CAM (with tumor) was removed, washed by PBS buffer and then directly transferred in PFA (fixation for 48 hrs). After that, tumors were carefully cut away from normal CAM tissue and weighed.
Embryonic viability was checked daily. The number of dead embryos was also counted on E18, to evaluate treatment-induced embryo toxicity.

Setting [2] is: dose [1]: L2Zn3 54 μM, L2Cu3 42 μM.
Setting [3] is: dose [2]: L2Zn3 108 μM, L2Cu3 84 μM.
Where [4] appears, read: dose [3]: L2Zn3 216 μM, L2Cu3 168 μM.

With `[Cu+2].[Cu+2].[Cu+2].c1ccc(-c2csc(NCCN(CCNc3nc(-c4ccccn4)cs3)CCNc3nc(-c4ccccn4)cs3)n2)nc1.c1ccc(-c2csc(NCCN(CCNc3nc(-c4ccccn4)cs3)CCNc3nc(-c4ccccn4)cs3)n2)nc1` [[L2Cu3]^6+], the IC50 result in series [1] is on record as “mostly sub-μM”. Besides, in series [1] (many of the cancer cell lines), the selectivity indices is recorded as more than 100. The embryo tolerability result in the series with chick embryo is “well tolerated”. Moreover, in the series with chick embryo (setting [2]), the “% Alive” value is given as 85.71%, the “% Dead” value came out at 14.29%, the “Alive (embryos at E18)” value turned out to be 12 and the “Dead (embryos at E18)” value amounted to 2. Also, in the series on chick embryo (setting [3]), the “% Alive” value turned out to be 92.86%, the “% Dead” value is recorded as 7.14%, the “Alive (embryos at E18)” value was 13 and the “Dead (embryos at E18)” value came out at 1. Moreover, in the series on chick embryo (setting [4]), the “% Alive” value is 85.71%, the “% Dead” value was determined as 14.29%, the “Alive (embryos at E18)” value stood at 12 and the “Dead (embryos at E18)” value was 2.
Regarding `[Zn+2].[Zn+2].[Zn+2].c1ccc(-c2csc(NCCN(CCNc3nc(-c4ccccn4)cs3)CCNc3nc(-c4ccccn4)cs3)n2)nc1.c1ccc(-c2csc(NCCN(CCNc3nc(-c4ccccn4)cs3)CCNc3nc(-c4ccccn4)cs3)n2)nc1` [[L2Zn3]^6+], the IC50 entry in series [1] is “mostly sub-μM”. Further, the embryo tolerability entry with chick embryo is “well tolerated”. Further, in the series with chick embryo (setting [2]), the “% Alive” value is on record as 92.86%, the “% Dead” value is on record as 7.14%, the “Alive (embryos at E18)” value came out at 13 and the “Dead (embryos at E18)” value was determined as 1. In the series with chick embryo (setting [3]), the “% Alive” value was 76.92%, the “% Dead” value was 23.08%, the “Alive (embryos at E18)” value is 10 and the “Dead (embryos at E18)” value turned out to be 3. For the same compound, in the series with chick embryo (setting [4]), the “% Alive” value came out at 90.91%, the “% Dead” value was found to be 9.09%, the “Alive (embryos at E18)” value stood at 10 and the “Dead (embryos at E18)” value turned out to be 1.
